Results reported in paper PMC11876601 (Molecular Systems Biology, 2025).
Values joined by “and” are separate entries in the source; they are usually repeats but may differ in a detail not shown here. Identical values can stand only once. Like-named read-outs stand apart in the source and are kept apart here.

Experiments:
AsPC-1 cells = test: Cell proliferation assay, chemodrug + ATR inhibitor (Incucyte confluence, 72 h); conditions: for Ratio: Response / Response vehicle (mean);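 on all read-outs here: underlying read-out for every value is AsPC-1 confluence after 72 h incubation at 37 °C and 5% CO2, divided by that well's starting confluence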
Protocol: (§1) Cells were seeded at 5000 cells/well into 96-well flat bottom plates (Eppendorf) and allowed to attach overnight. […] Cells were incubated for 72 h at 37 °C and 5% CO2. Cell confluence readouts at 72 h were either normalized to their initial confluence using the Incucyte software (AsPC-1) or used without prior normalization (all others). […] Each experiment was performed in triplicates, the data was plotted as mean ± standard deviation (s.d.).

Suit2-07 cells = test: Cell proliferation assay, GEM + ATR inhibitor (Incucyte confluence, 72 h); type: cell-based, human; conditions: Suit2-07; for EC50: Homo sapiens, 72 h; for Ratio: Response to Response vehicle (mean); for Ratio / Response: R1; for Curve bottom / Curve top: plateau of fitted curve, ratio drug/vehicle confluence;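 on all read-outs here: Suit2-07 cells grown in 96-well plates at 37 °C, 5% CO2, raw 72 h confluence taken without normalizing to starting confluence, each experiment done in triplicate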
Protocol: as §1

[1] = GEM+ATRi_dose3, GEM 30 nM + ATRi 30 nM
[2] = experiment ATRi (ATR inhibitor alone)

## Nc1nn2cc(F)cnc2c1C(=O)Nc1cncc(F)c1N1CCC(C(=O)N2CCN(C3COC3)CC2)CC1 [Gartisertib]
AsPC-1 cells; Homo sapiens, ASPC1, read-out: EC50 mean [nM], AsPC1, Experiment ATRi (ATR inhibitor alone), mean of replicates
  EC50: 128 nM
AsPC-1 cells; GEM 0 nM, ATRi 3 nM
  Ratio: 0.90 and 0.92 and 1.01 and 0.83 and 1.02 and 0.89
AsPC-1 cells; GEM 0 nM, ATRi 10 nM
  Ratio: 1.01 and 1.02 and 1.00 and 0.91 and 0.97 and 0.98
AsPC-1 cells; GEM 0 nM, ATRi 30 nM
  Ratio: 0.95 and 0.94 and 0.89
AsPC-1 cells; GEM 0 nM, ATRi 100 nM
  Ratio: 0.63 and 0.73 and 0.80
AsPC-1 cells; GEM 0 nM, ATRi 300 nM
  Ratio: 0.44 and 0.38 and 0.41
AsPC-1 cells; GEM 0 nM, ATRi 1000 nM
  Ratio: 0.37 and 0.31 and 0.33
AsPC-1 cells; GEM 0 nM, ATRi 3000 nM
  Ratio: 0.33 and 0.28 and 0.29
AsPC-1 cells; GEM 0 nM, ATRi 10000 nM
  Ratio: 0.27 and 0.29 and 0.25
AsPC-1 cells; GEM 1 nM + ATRi 3 nM
  Ratio: 0.98 and 0.92 and 0.96
AsPC-1 cells; GEM 1 nM + ATRi 10 nM
  Ratio: 1.01 and 0.95 and 0.97
AsPC-1 cells; GEM 1 nM + ATRi 30 nM
  Ratio: 0.89 and 0.91 and 0.87
AsPC-1 cells; GEM 3 nM + ATRi 3 nM
  Ratio: 0.98 and 0.93
AsPC-1 cells; GEM 3 nM + ATRi 10 nM
  Ratio: 0.94 and 0.89 and 0.91
AsPC-1 cells; GEM 3 nM + ATRi 30 nM
  Ratio: 0.95 and 0.82 and 0.85
AsPC-1 cells; GEM 10 nM + ATRi 3 nM
  Ratio: 0.87 and 0.86
AsPC-1 cells; GEM 10 nM + ATRi 10 nM
  Ratio: 0.79 and 0.67 and 0.68
AsPC-1 cells; GEM 10 nM + ATRi 30 nM
  Ratio: 0.59 and 0.46 and 0.49
AsPC-1 cells; GEM 30 nM + ATRi 3 nM
  Ratio: 0.66 and 0.55 and 0.53
AsPC-1 cells; GEM 30 nM + ATRi 10 nM
  Ratio: 0.51 and 0.39 and 0.41
AsPC-1 cells; GEM 30 nM + ATRi 30 nM
  Ratio: 0.55 and 0.40 and 0.39
AsPC-1 cells; GEM 100 nM + ATRi 3 nM
  Ratio: 0.52 and 0.40 and 0.41
AsPC-1 cells; GEM 100 nM + ATRi 10 nM
  Ratio: 0.49 and 0.37 and 0.39
AsPC-1 cells; GEM 100 nM + ATRi 30 nM
  Ratio: 0.48 and 0.38 and 0.37
AsPC-1 cells; GEM 300 nM + ATRi 3 nM
  Ratio: 0.49 and 0.39 and 0.38
AsPC-1 cells; GEM 300 nM + ATRi 10 nM
  Ratio: 0.47 and 0.37
AsPC-1 cells; GEM 300 nM + ATRi 30 nM
  Ratio: 0.46 and 0.35 and 0.36
AsPC-1 cells; GEM 1000 nM + ATRi 3 nM
  Ratio: 0.49 and 0.39
AsPC-1 cells; GEM 1000 nM + ATRi 10 nM
  Ratio: 0.44 and 0.38 and 0.36
AsPC-1 cells; GEM 1000 nM + ATRi 30 nM
  Ratio: 0.43 and 0.35
AsPC-1 cells; GEM 3000 nM + ATRi 3 nM
  Ratio: 0.43 and 0.38 and 0.37
AsPC-1 cells; GEM 3000 nM + ATRi 10 nM
  Ratio: 0.43 and 0.35 and 0.34
AsPC-1 cells; GEM 3000 nM + ATRi 30 nM
  Ratio: 0.41 and 0.34
Suit2-07 cells; experiment ATRi (ATR inhibitor alone), -log10 of EC50 [M], read-out: pEC50 (converted)
  EC50: 3.39e-07 M
Suit2-07 cells; experiment ATRi (ATR inhibitor alone), mean (one replicate), read-out: EC50 mean
  EC50: 3.39e-07 M
Suit2-07 cells; experiment ATRi (ATR inhibitor alone), replicate R1, read-out: EC50
  EC50: 3.39e-07 M
Suit2-07 cells; GEM+ATRi_dose1, GEM 0 nM + ATRi 10 nM
  Ratio: 1.02
Suit2-07 cells; GEM+ATRi_dose1, GEM 1 nM + ATRi 10 nM
  Ratio: 1.01
Suit2-07 cells; GEM+ATRi_dose1, GEM 3 nM + ATRi 10 nM
  Ratio: 0.93
Suit2-07 cells; GEM+ATRi_dose1, GEM 10 nM + ATRi 10 nM
  Ratio: 0.23
Suit2-07 cells; GEM+ATRi_dose1, GEM 30 nM + ATRi 10 nM
  Ratio: 0.15
Suit2-07 cells; GEM+ATRi_dose1, GEM 100 nM + ATRi 10 nM
  Ratio: 0.15
Suit2-07 cells; GEM+ATRi_dose1, GEM 300 nM + ATRi 10 nM
  Ratio: 0.12
Suit2-07 cells; GEM+ATRi_dose1, GEM 1000 nM + ATRi 10 nM
  Ratio: 0.11
Suit2-07 cells; GEM+ATRi_dose1, GEM 3000 nM + ATRi 10 nM
  Ratio: 0.09
Suit2-07 cells; GEM+ATRi_dose2, GEM 0 nM + ATRi 3 nM
  Ratio: 0.98
Suit2-07 cells; GEM+ATRi_dose2, GEM 1 nM + ATRi 3 nM
  Ratio: 0.98
Suit2-07 cells; GEM+ATRi_dose2, GEM 3 nM + ATRi 3 nM
  Ratio: 0.26
Suit2-07 cells; GEM+ATRi_dose2, GEM 10 nM + ATRi 3 nM
  Ratio: 0.16
Suit2-07 cells; GEM+ATRi_dose2, GEM 30 nM + ATRi 3 nM
  Ratio: 0.13
Suit2-07 cells; GEM+ATRi_dose2, GEM 100 nM + ATRi 3 nM
  Ratio: 0.13
Suit2-07 cells; GEM+ATRi_dose2, GEM 300 nM + ATRi 3 nM
  Ratio: 0.11
Suit2-07 cells; GEM+ATRi_dose2, GEM 1000 nM + ATRi 3 nM
  Ratio: 0.11
Suit2-07 cells; GEM+ATRi_dose2, GEM 3000 nM + ATRi 3 nM
  Ratio: 0.09
Suit2-07 cells; GEM+ATRi_dose3, GEM 0 nM + ATRi 30 nM
  Ratio: 0.97
Suit2-07 cells; GEM+ATRi_dose3, GEM 1 nM + ATRi 30 nM
  Ratio: 0.93
Suit2-07 cells; GEM+ATRi_dose3, GEM 3 nM + ATRi 30 nM
  Ratio: 0.37
Suit2-07 cells; GEM+ATRi_dose3, GEM 10 nM + ATRi 30 nM
  Ratio: 0.18
Suit2-07 cells; [1]
  Ratio: 0.14
  Response: 13.78
Suit2-07 cells; GEM+ATRi_dose3, GEM 100 nM + ATRi 30 nM
  Ratio: 0.13
Suit2-07 cells; GEM+ATRi_dose3, GEM 300 nM + ATRi 30 nM
  Ratio: 0.12
Suit2-07 cells; GEM+ATRi_dose3, GEM 1000 nM + ATRi 30 nM
  Ratio: 0.13
Suit2-07 cells; GEM+ATRi_dose3, GEM 3000 nM + ATRi 30 nM
  Ratio: 0.08
Suit2-07 cells; experiment ATRi, ATRi 3 nM, GEM 0 nM
  Ratio: 1.02
Suit2-07 cells; experiment ATRi, ATRi 10 nM, GEM 0 nM
  Ratio: 1.01
Suit2-07 cells; experiment ATRi, ATRi 30 nM, GEM 0 nM
  Ratio: 0.98
Suit2-07 cells; experiment ATRi, ATRi 100 nM, GEM 0 nM
  Ratio: 0.96
Suit2-07 cells; experiment ATRi, ATRi 300 nM, GEM 0 nM
  Ratio: 0.63
Suit2-07 cells; experiment ATRi, ATRi 1000 nM, GEM 0 nM
  Ratio: 0.22
Suit2-07 cells; experiment ATRi, ATRi 3000 nM, GEM 0 nM
  Ratio: 0.19
Suit2-07 cells; experiment ATRi, ATRi 10000 nM, GEM 0 nM
  Ratio: 0.12
Suit2-07 cells; GEM+ATRi_dose1, GEM 0 nM + ATRi 10 nM, in % (unit assumed)
  Response: 99.22
Suit2-07 cells; GEM+ATRi_dose1, GEM 1 nM + ATRi 10 nM, in % (unit assumed)
  Response: 98.36
Suit2-07 cells; GEM+ATRi_dose1, GEM 3 nM + ATRi 10 nM, in % (unit assumed)
  Response: 90.74
Suit2-07 cells; GEM+ATRi_dose1, GEM 10 nM + ATRi 10 nM, in % (unit assumed)
  Response: 21.98
Suit2-07 cells; GEM+ATRi_dose1, GEM 30 nM + ATRi 10 nM, in % (unit assumed)
  Response: 14.67
Suit2-07 cells; GEM+ATRi_dose1, GEM 100 nM + ATRi 10 nM, in % (unit assumed)
  Response: 14.71
Suit2-07 cells; GEM+ATRi_dose1, GEM 300 nM + ATRi 10 nM, in % (unit assumed)
  Response: 11.45
Suit2-07 cells; GEM+ATRi_dose1, GEM 1000 nM + ATRi 10 nM, in % (unit assumed)
  Response: 10.53
Suit2-07 cells; GEM+ATRi_dose1, GEM 3000 nM + ATRi 10 nM, in % (unit assumed)
  Response: 8.70
Suit2-07 cells; GEM+ATRi_dose2, GEM 0 nM + ATRi 3 nM, in % (unit assumed)
  Response: 95.38
Suit2-07 cells; GEM+ATRi_dose2, GEM 1 nM + ATRi 3 nM, in % (unit assumed)
  Response: 96.21
Suit2-07 cells; GEM+ATRi_dose2, GEM 3 nM + ATRi 3 nM, in % (unit assumed)
  Response: 25.36
Suit2-07 cells; GEM+ATRi_dose2, GEM 10 nM + ATRi 3 nM, in % (unit assumed)
  Response: 15.98
Suit2-07 cells; GEM+ATRi_dose2, GEM 30 nM + ATRi 3 nM, in % (unit assumed)
  Response: 13.06
Suit2-07 cells; GEM+ATRi_dose2, GEM 100 nM + ATRi 3 nM, in % (unit assumed)
  Response: 13.09
Suit2-07 cells; GEM+ATRi_dose2, GEM 300 nM + ATRi 3 nM, in % (unit assumed)
  Response: 10.34
Suit2-07 cells; GEM+ATRi_dose2, GEM 1000 nM + ATRi 3 nM, in % (unit assumed)
  Response: 10.34
Suit2-07 cells; GEM+ATRi_dose2, GEM 3000 nM + ATRi 3 nM, in % (unit assumed)
  Response: 9.00
Suit2-07 cells; GEM+ATRi_dose3, GEM 0 nM + ATRi 30 nM, in % (unit assumed)
  Response: 94.90
Suit2-07 cells; GEM+ATRi_dose3, GEM 1 nM + ATRi 30 nM, in % (unit assumed)
  Response: 91.25
Suit2-07 cells; GEM+ATRi_dose3, GEM 3 nM + ATRi 30 nM, in % (unit assumed)
  Response: 36.47
Suit2-07 cells; GEM+ATRi_dose3, GEM 10 nM + ATRi 30 nM, in % (unit assumed)
  Response: 17.41
Suit2-07 cells; GEM+ATRi_dose3, GEM 100 nM + ATRi 30 nM, in % (unit assumed)
  Response: 12.30
Suit2-07 cells; GEM+ATRi_dose3, GEM 300 nM + ATRi 30 nM, in % (unit assumed)
  Response: 12.12
Suit2-07 cells; GEM+ATRi_dose3, GEM 1000 nM + ATRi 30 nM, in % (unit assumed)
  Response: 12.34
Suit2-07 cells; GEM+ATRi_dose3, GEM 3000 nM + ATRi 30 nM, in % (unit assumed)
  Response: 7.88
Suit2-07 cells; [2]
  Curve bottom: 1.01
  Curve top: 0.15
Suit2-07 cells; experiment ATRi, ATRi 3 nM, GEM 0 nM, in % (unit assumed)
  Response: 99.33
Suit2-07 cells; experiment ATRi, ATRi 10 nM, GEM 0 nM, in % (unit assumed)
  Response: 98.82
Suit2-07 cells; experiment ATRi, ATRi 30 nM, GEM 0 nM, in % (unit assumed)
  Response: 95.35
Suit2-07 cells; experiment ATRi, ATRi 100 nM, GEM 0 nM, in % (unit assumed)
  Response: 93.53
Suit2-07 cells; experiment ATRi, ATRi 300 nM, GEM 0 nM, in % (unit assumed)
  Response: 61.81
Suit2-07 cells; experiment ATRi, ATRi 1000 nM, GEM 0 nM, in % (unit assumed)
  Response: 21.20
Suit2-07 cells; experiment ATRi, ATRi 3000 nM, GEM 0 nM, in % (unit assumed)
  Response: 18.17
Suit2-07 cells; experiment ATRi, ATRi 10000 nM, GEM 0 nM, in % (unit assumed)
  Response: 11.75
Suit2-07 cells; experiment GEM+ATRi_dose1
  Curve bottom: 1.01
  Curve top: 0.12
Suit2-07 cells; experiment GEM+ATRi_dose2
  Curve bottom: 0.98
  Curve top: 0.12
Suit2-07 cells; experiment GEM+ATRi_dose3
  Curve bottom: 0.98
  Curve top: 0.13
